One compound from patent publication US11946070B2, “Method of reinforcing efficacy of stem cells using ethionamide” (SAMSUNG LIFE PUBLIC WELFARE FOUNDATION, priority 2019, dated 2024) can be followed below.

For experiment [1], the system named is human umbilical cord mesenchymal stem cells. The following applies: ethionamide 50 or 100 μM; FIG. 4A. How it is done:
(§1) First, a 3 to 4 cm piece of umbilical cord tissue was fragmented, and treated with a collagenase solution (Gibco, USA) for 60 to 90 minutes to digest an extracellular matrix, followed by digestion with 0.25% trypsin (Gibco, USA) for 30 minutes at 37° C. Subsequently, cells were obtained by adding fetal bovine serum (FBS; Biowest, USA) to the resulting product, and then performing centrifugation at 1000×g for 10 minutes, and then cultured using Minimum Essential Media (MEM; Gibco, USA) supplemented with 10% FBS and 50 μg/ml gentamycin (Gibco, USA) at 37° C. in a 5% CO2 atmosphere, and thus mesenchymal stem cells at passage 5 or 6 were used for an experiment.
(§2) 6×10^3 cells/cm 2 of the human umbilical cord mesenchymal stem cells prepared according to the method of Example 1 were seeded in a cell culture container, and simultaneously, ethionamide was treated at a concentration of 50 μM, 100 μM or 150 μM, followed by culturing for 72 hours.
To verify whether the expression level of a paracrine factor of mesenchymal stem cells is changed by ethionamide treatment, the mesenchymal stem cells were treated with ethionamide at 50 or 100 μM, and then expression levels of a brain-derived neurotrophic factor (BDNF), a vascular endothelial cell growth factor (VEGF), insulin-like growth factor-1 (IGF-1) and a hepatocyte growth factor (HGF), which are known as paracrine factors, were measured.

Experiment [2] has the same test system. The following applies: ethionamide 50 or 100 μM; FIG. 4B. How it is done: as §1, §2
Subsequently, the mesenchymal stem cells were treated with ethionamide by the same method as described above, and mRNA expression levels of antioxidation-related factors, such as HO-1, NQO1, GCLC and GCLM were measured.

`CCc1cc(C(N)=S)ccn1` [ethionamide, 2-ethylpyridine-4-carbothioamide]: in experiment [1], the BDNF expression level entry is given as “increases in proportion to the treated concentration of ethionamide”, the HGF expression level result is recorded as “increases in proportion to the treated concentration of ethionamide”, the IGF-1 expression level result is recorded as “increases in proportion to the treated concentration of ethionamide” and the VEGF expression level entry is “increases in proportion to the treated concentration of ethionamide”. Moreover, in experiment [2], the “GCLC mRNA expression level” value was “significantly increases in proportion to the treated concentration of ethionamide”, the “GCLM mRNA expression level” value is listed as “significantly increases in proportion to the treated concentration of ethionamide”, the “HO-1 mRNA expression level” value is given as “significantly increases in proportion to the treated concentration of ethionamide” and the “NQO1 mRNA expression level” value was “significantly increases in proportion to the treated concentration of ethionamide”.
